# Reference: patent publication US12102637B2, “Pharmaceutical formulations for treating endometriosis, uterine fibroids, polycystic ovary syndrome or adenomyosis” (AbbVie Inc., priority 2017, dated 2024)
# Entries after “also recorded” stand apart in the source; their conditions may differ.
# Experiments:
# rats = experiment: Fertility and repeat-dose studies in rats; format: in vivo, rat
# Source text: (§1) Based on pharmacologic actions of elagolix in humans a reversible effect on fertility may be expected in women.
# [1] = test system: premenopausal women with endometriosis with associated pain; experiment: Blinded extension studies EM-III and EM-IV (12 months); format: in vivo, human; details: patients maintained on their dose
# Source text: Each placebo-controlled study assessed the reduction in endometriosis-associated pain over 6 months of treatment. More than 75 percent of women who completed Study EM-I and EM-II enrolled in the extension studies for an additional 6 months treatment period. Subjects were followed for up to 12 months post-treatment. In study EM-IV, efficacy was maintained when elagolix was taken with and without food.
# [2] = test system: premenopausal women with endometriosis with associated pain; experiment: Rescue analgesic (opioid, naproxen) use in EM-I and EM-II; format: in vivo, human
# Protocol: These effects were less consistently observed for women taking elagolix 150 mg QD. […] Reduction in pain may be reflected by reduction in pain medication, such as prescription opioids or non-steroidal anti-inflammatory agents (NSAIDs) that may be prescribed or found over the counter, for example, naproxen or acetaminophen. […] In this pooled analysis of rescue analgesic use in two phase 3 trials, compared with placebo: […] […] In EM-1 and EM-2, 59% and 60% of patients used an opioid rescue analgesic for pain at baseline. The opioid rescue analgesics used at baseline were predominantly hydrocodone/acetaminophen (HC/APAP) and codeine/APAP at strengths of 5/300-325 mg and 30/300-500 mg. In EM-1, of all patients on an opioid at baseline, 98% and 2% were on HC/APAP and codeine/APAP, respectively. In EM-2, of all patients on an opioid at baseline, 50% were on HC/APAP, 16% were on codeine/APAP, 3% were on codeine, and 32% were on tramadol/APAP.
# [3] = Drug interaction studies: elagolix in the presence of co-administered drug; format: in vivo, human; details: for AUC Ratio (co-administration vs elagolix alone) / Cmax Ratio (co-administration vs elagolix alone): elagolix 150 mg single dose
# Protocol: Drug interaction studies were performed with elagolix and other drugs that are likely to be co-administered and with drugs commonly used as probes for pharmacokinetic interactions.
# menstrual bleeding = experiment: Effects on menstrual bleeding patterns (electronic daily diary; bleeding/spotting days, intensity, amenorrhea, resumption of menses); format: in vivo, human; details: for Mean bleeding/spotting days in prior 28 days / Mean Intensity score: Baseline; for Mean Intensity score: scale 1 to 4 (1 = spotting, 4 = heavy), subjects with at least 1 day of bleeding or spotting in 28 day interval
# monkeys = experiment: Repeat-dose study in monkeys (reproductive organs); format: in vivo, monkey; details: monkeys, 75, 150, 300 and 600 mg/kg/day, all doses
# Source text: as §1
# [4] = test system: women with moderate to severe endometriosis-related pain; experiment: PROMIS Fatigue SF-6a T-score in Phase III endometriosis study; format: in vivo, human
# Protocol: A Phase III study was conducted to assess the effects of elagolix for clinically meaningful reductions in pain and other symptoms. Data provided examined the impact of elagolix on fatigue in women with moderate to severe endometriosis-related pain. […] Fatigue was assessed using the Patient Reported Outcome Measurement Information System (PROMIS®), Fatigue Short Form (SF) 6a. Six items assessed a range of self-reported symptoms from mild, subjective feelings of tiredness to overwhelming, sustained sense of exhaustion that likely decreases one's ability to execute daily activities and function normally. The domain was divided into the experience of fatigue (frequency, duration and intensity) and impact of fatigue on physical, mental and social activities. All items assessed fatigue over the previous seven days. Responses to each question was filed on a 5-item Likert scale: 1—“Not at all”; 2—“A little bit”; 3—“Somewhat”; 4—“Quite a bit”; and 5—“Very much.” The questionnaire was administered at baseline and months 1, 3, and 6. Lower scores indicated less fatigue. Post-hoc, Fatigue SF-6a raw scores were converted to T-scores. The T-score rescales […] the raw score into a standardized score such that the general population has a mean of 50 and a standard deviation (SD) of 10. Analysis: […] ANCOVA controlled for treatment as main effect. Baseline Fatigue SF-6a T-score included as a covariate.
# [5] = Pharmacokinetics in hepatic impairment; format: in vivo, human
# Source text: Elagolix exposures (Cmax and AUC) are similar between women with normal hepatic function and women with mild hepatic impairment. Elagolix exposures in women with moderate and severe hepatic impairment are approximately 3-fold and 7-fold, respectively, of exposures from women with normal hepatic function.
# Compared to women with normal liver function, those with moderate hepatic impairment had approximately 3-fold higher elagolix exposures and those with severe hepatic impairment had approximately 7-fold higher elagolix exposures. Because of these increased exposures and risk for bone loss: Elagolix 150 mg once daily is recommended for women with moderate hepatic impairment (Child-Pugh B) with the duration of treatment limited to 6 months. Use of elagolix 200 mg twice daily is not recommended for women with moderate hepatic impairment. Elagolix is contraindicated in women with severe hepatic impairment (Child-Pugh C).
# [6] = Pharmacokinetics in renal impairment; format: in vivo, human; details: moderate to severe or end stage renal disease vs normal renal function
# Source text: The mean exposures are similar for women with moderate to severe or end stage renal disease (including women on dialysis) compared to women with normal renal function.
# [7] = Lactation study in rats (elagolix in pup plasma); format: in vivo, rat
# Protocol: Pregnant rats were given diet containing elagolix throughout the gestation and lactation periods to achieve a daily elagolix dose of 400 mg/kg. During nursing the dams and litters were divided into restricted feeding and non-restricted groups to determine whether elagolix was secreted in the mother's milk. […] In pups of the non-restricted feeding group, elagolix plasma concentrations were measurable and approximately 1% of the mother's plasma concentrations.
# [8] = Ketoconazole 400 mg once daily, N 11
# [9] = Rifampin 600 mg single dose, N 12
smiles,measurement,setting,value
"COc1cccc(-c2c(C)n(Cc3c(F)cccc3C(F)(F)F)c(=O)n(C[C@H](NCCCC(=O)O)c3ccccc3)c2=O)c1F [Compound A, 4-((R)-2-[5-(2-fluoro-3-methoxy-phenyl)-3-(2-fluoro-6-trifluoromethyl-benzyl)-4-methyl-2,6-dioxo-3,6-dihydro-2H-pyrimidin-1-yl]-1-phenyl-ethylamino)-butyric acid]",effect in fertility study,"rats; doses 50, 150, 300 mg/kg/day",no effect
same,ovarian findings in repeat-dose study,"rats; doses 600, 800 mg/kg/day",involution and a decrease in corpora lutea in ovaries
same,"durability of improvement in dysmenorrhea, NMPP and dyspareunia",[1],demonstrated for a total of 12 months
same,amount of opioid or naproxen rescue medication used vs baseline,[2]; 200 mg BID,reduced the amount of opioid (hydrocodone with acetaminophen) or naproxen rescue medication
same,mean percent daily rescue opioid pill counts,"[2]; pooled analysis, 200 mg BID, vs placebo",significant reduction in the mean percent daily pill counts
same,percentage of days in which rescue opioid medication was taken,"[2]; pooled analysis, both doses 150 QD and 200 BID, vs placebo",significant reduction in the percentage of days in which rescue opioid medication was taken
same,AUC Ratio (co-administration vs elagolix alone),[3]; [8],2.20
same,Cmax Ratio (co-administration vs elagolix alone),[3]; [8],1.77
same,AUC Ratio (co-administration vs elagolix alone),[3]; Rifampin 600 mg once daily,1.65
same,Cmax Ratio (co-administration vs elagolix alone),[3]; Rifampin 600 mg once daily,2.00
same,AUC Ratio (co-administration vs elagolix alone),[3]; [9],5.58
same,Cmax Ratio (co-administration vs elagolix alone),[3]; [9],4.37
same,direction of the change in AUC of elagolix,[3]; concomitant rifampin,↑ elaolix
same,Mean bleeding/spotting days in prior 28 days,menstrual bleeding; Elagolix 150 mg Once Daily,5.3 days
same,Mean Intensity score,menstrual bleeding; Elagolix 150 mg Once Daily,2.6
same,Mean bleeding/spotting days in prior 28 days,menstrual bleeding; Elagolix 200 mg Twice Daily,5.7 days
same,Mean Intensity score,menstrual bleeding; Elagolix 200 mg Twice Daily,2.5
same,incidence of amenorrhea,"menstrual bleeding; first six months of treatment, 150 mg once daily",6-17%
same,incidence of amenorrhea,"menstrual bleeding; first six months of treatment, 200 mg twice daily",13-52%
same,incidence of amenorrhea,"menstrual bleeding; second 6 months of treatment, 150 mg once daily",11-15%
same,incidence of amenorrhea,"menstrual bleeding; second 6 months of treatment, 200 mg twice daily",46-57%
same,bleeding and spotting days and bleeding intensity,"menstrual bleeding; up to 12 months, subjects who reported menstrual bleeding",dose-dependent reduction in mean number of bleeding and spotting days and bleeding intensity
same,reproductive organ findings in repeat-dose study,monkeys,"reversible atrophy of reproductive organs (cervix, uterus and vagina)"
same,PROMIS Fatigue SF-6a T-Score,"[4]; 200 mg, Month 1, vs placebo",statistically significant reduction in fatigue
same,PROMIS Fatigue SF-6a T-Score,"[4]; both doses (150 mg QD, 200 mg BID), Months 3 and 6, vs placebo",Statistically significant reductions relative to placebo
same,exposures (Cmax and AUC) vs normal hepatic function,[5]; mild hepatic impairment,similar
same,exposures vs normal hepatic function,[5]; moderate hepatic impairment,approximately 3 fold
same,exposures vs normal hepatic function,"[5]; severe hepatic impairment, listed as Elagolix",~7 fold
same,exposures vs normal hepatic function,"[5]; severe hepatic impairment, listed as elagolix",approximately 7 fold
same,exposures (Cmax and AUC) in renal impairment,[6],not altered by renal impairment
same,"elagolix plasma concentrations in pups, % of the mother's plasma concentrations","[7]; dams 400 mg/kg daily in diet, non-restricted feeding group",approximately 1%
same,elagolix plasma concentrations in pups,"[7]; dams 400 mg/kg daily in diet, restricted feeding litters, post natal day 10 and 20",not measurable
same,secretion in milk,[7]; listed as elagolix,secreted minimally via milk; also recorded: minimally secreted in milk
